Test results reported in the supplement of paper PMC10307832.

Experiments:
Test in all cases: relative viability (nuclei count vs DMSO), 5 days (fraction); higher = more cells survive
[1] = compound: C=CCn1c(=O)c2cnc(Nc3ccc(N4CCN(C)CC4)cc3)nc2n1-c1cccc(C(C)(C)O)n1 [Adavosertib] + CCNC(=O)c1noc(-c2cc(C(C)C)c(O)cc2O)c1-c1ccc(CN2CCOCC2)cc1 [Luminespib] (partner 0.01 µM)
Method in brief: (§1)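 A single step with final 0.05% Triton X-100, 1% formaldehyde and 1 ug/ml Hoechst fixed the cells and stained nuclei 5 days after treatment. Lung cancer cell lines in 1536-well plates had been treated by pin tool the day after seeding with one drug alone or a fixed anchor-drug dose plus five library-drug doses (not always all listed) in √10 steps, and nuclei were counted on 4× images. Relative viability is the ratio of nuclei in treated wells to nuclei in vehicle wells, taken as the median of duplicate plates.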

[2] = compound: COc1nc(N)nc2c1ncn2[C@@H]1O[C@H](CO)[C@@H](O)[C@@H]1O [Nelarabine] + CC(=O)c1c(C)c2cnc(Nc3ccc(N4CCNCC4)cn3)nc2n(C2CCCC2)c1=O [Palbociclib] (partner 0.5 µM)
Method in brief: as §1

[3] = compound: C=CCn1c(=O)c2cnc(Nc3ccc(N4CCN(C)CC4)cc3)nc2n1-c1cccc(C(C)(C)O)n1 [Adavosertib] + CC(=O)c1c(C)c2cnc(Nc3ccc(N4CCNCC4)cn3)nc2n(C2CCCC2)c1=O [Palbociclib] (partner 0.5 µM)
Method in brief: as §1

[4] = compound: C=CCn1c(=O)c2cnc(Nc3ccc(N4CCN(C)CC4)cc3)nc2n1-c1cccc(C(C)(C)O)n1 [Adavosertib] + NC(=O)Nc1cc(-c2cccc(F)c2)sc1C(=O)N[C@H]1CCCNC1 [AZD7762] (partner 0.2 µM)
Method in brief: as §1

Cell Line | relative viability ([1]; first compound 0.01 µM) | relative viability ([1]; first compound 0.03162 µM) | relative viability ([1]; first compound 0.1 µM) | relative viability ([1]; first compound 0.3162 µM) | relative viability ([2]; first compound 0.01 µM) | relative viability ([2]; first compound 0.03162 µM) | relative viability ([2]; first compound 0.1 µM) | relative viability ([2]; first compound 0.3162 µM) | relative viability ([2]; first compound 1 µM) | relative viability ([3]; first compound 0.01 µM) | relative viability ([3]; first compound 0.03162 µM) | relative viability ([3]; first compound 0.1 µM) | relative viability ([3]; first compound 0.3162 µM) | relative viability ([4]; first compound 0.01 µM) | relative viability ([4]; first compound 0.03162 µM) | relative viability ([4]; first compound 0.1 µM) | relative viability ([4]; first compound 0.3162 µM)
COR-L 105 | 1.03 | 0.698 | 0.962 | 0.774 | 0.383 | 0.354 | 0.43 | 0.385 | 0.421 | 0.374 | 0.419 | 0.415 | 0.444 |  |  |  | 
201T | 1.1 | 1.04 | 1.05 | 1.09 | 0.391 | 0.352 | 0.409 | 0.389 | 0.351 | 0.336 | 0.356 | 0.364 | 0.367 | 0.615 | 0.537 | 0.471 | 0.267
NCI-H2342 | 0.636 | 0.676 | 0.788 | 0.784 | 0.557 | 0.463 | 0.529 | 0.521 | 0.554 | 0.5 | 0.526 | 0.509 | 0.566 | 0.524 | 0.508 | 0.48 | 0.43
NCI-H838 | 0.293 | 0.302 | 0.313 | 0.284 | 0.267 | 0.244 | 0.226 | 0.242 | 0.253 | 0.232 | 0.211 | 0.224 | 0.213 | 0.986 | 0.831 | 0.722 | 0.626
NCI-H522 |  | 1.04 | 1.24 | 1.2 | 1.16 | 1.07 | 0.957 | 0.947 | 1.02 | 1.02 | 1.1 | 1.21 | 1.06 | 0.654 | 0.733 | 0.782 | 0.882
CAL-12T | 0.312 | 0.102 | 0.601 | 0.23 | 0.474 | 0.489 | 0.551 | 0.412 | 0.515 | 0.403 | 0.492 | 0.425 | 0.262 | 0.569 | 0.41 | 0.427 | 0.232
NCI-H1755 | 0.417 | 0.616 | 0.342 | 0.531 | 0.462 | 0.464 | 0.462 | 0.463 | 0.453 | 0.449 | 0.41 | 0.443 | 0.446 | 0.455 | 0.33 | 0.327 | 0.253
SK-LU-1 | 0.19 | 0.201 | 0.249 | 0.169 | 0.456 | 0.276 | 0.352 | 0.376 | 0.377 | 0.405 | 0.467 | 0.398 | 0.342 |  |  |  | 
COR-L23 | 0.614 | 0.61 | 0.667 | 0.232 | 0.4 | 0.243 | 0.26 | 0.267 | 0.282 | 0.291 | 0.338 | 0.274 | 0.205 |  |  |  | 
NCI-H2228 | 0.186 | 0.159 | 0.132 | 0.134 | 1.04 | 0.538 | 0.599 | 0.937 | 0.792 |  | 0.746 | 0.62 | 0.545 |  |  |  | 
SK-MES-1 | 0.604 | 0.723 | 0.559 | 0.236 | 0.3 | 0.327 | 0.305 | 0.316 | 0.354 | 0.343 | 0.337 | 0.305 | 0.25 |  |  |  | 
NCI-H596 | 0.911 | 1.2 | 0.958 | 0.76 |  |  |  |  |  |  |  |  |  | 1.04 | 1.05 | 0.844 | 0.751
NCI-H1623 | 0.354 | 0.492 | 0.453 | 0.468 |  |  |  |  |  |  |  |  |  |  |  |  | 
NCI-H1648 |  |  |  |  |  | 0.27 |  | 0.292 | 0.215 | 0.311 | 0.29 | 0.219 | 0.244 | 0.549 | 0.532 | 0.533 | 0.414
NCI-H2023 | 0.8 | 0.771 | 0.441 | 0.31 | 0.321 | 0.369 | 0.348 | 0.336 | 0.302 | 0.412 | 0.377 | 0.331 | 0.202 |  |  |  | 
SW 1573 | 0.177 | 0.226 | 0.192 | 0.198 | 0.465 | 0.382 | 0.41 | 0.399 | 0.338 | 0.364 | 0.42 | 0.401 | 0.392 |  |  |  | 
NCI-H661 | 0.898 | 0.924 | 1.06 | 0.557 | 0.386 | 0.401 | 0.402 | 0.403 | 0.422 | 0.424 | 0.449 | 0.464 | 0.451 |  |  |  | 
NCI-H1703 |  |  |  |  |  |  |  |  |  |  |  |  |  | 0.105 | 0.13 | 0.122 | 0.118
NCI-H520 | 0.227 | 0.214 | 0.243 | 0.213 | 0.215 | 0.186 | 0.236 | 0.261 | 0.168 | 0.22 | 0.214 | 0.229 | 0.246 |  |  |  | 
NCI-H2009 | 1.01 | 1.07 | 1.06 | 0.888 | 0.194 | 0.206 | 0.203 | 0.161 | 0.192 | 0.195 | 0.2 | 0.258 | 0.215 |  |  |  | 
